Source: US10280217B2, “Cell culture additives and their use for increased bioprotein production from cells” (priority 2017, dated 2019)
Read-outs that look alike come from different tables or passages of the source.

Legend:
CHO-HBS cells [1] = assay: Batch CHO cell process in 3 L bioreactors with gaseous or dissolved candidate Additives (VCD, antibody titer, qP); format: cell-based, Chinese hamster; details: vs control; for impact on protein biomolecule production or cell growth: gas sparged into 3 L batch cultures; for antibody titer / calculated specific cellular productivity (qP) / viable cell density (VCD) / cell growth: 3 L batch cultures
Procedure: The following candidate gaseous and chemical additives were screened using a batch CHO cell process in a 3 L (2 L working volume) bioreactors. CHO-HBS cells were cultured in CDM4MAb media (HyClone Labaratories; Logan Utah; custom part containing base media cat# SH30801.02 supplemented with an additional 0.5 g/L poloxamer 188) in vented, plain-bottom Erlenmeyer flasks at 3-30×10^5 cells/mL. The cells were cultured for 14-16 days and then inoculated into 3 L semi-batch bioreactors at 3-4×10^5 cells/mL with 2 L working volumes. The bioreactor system monitored and controlled temperature, pH, % CO2, %02, sparge rate, and aeration rate. The bioreactors maintained a sparge rate of 0.1 vvm, 40% DO, and a pH value of 7.10. The pH was controlled by addition of CO2 or 1 N sodium bicarbonate solution. Additionally, 1 M glucose was added and adjusted daily to allow for a glucose consumption rate of 3 g/L/day. Each bioreactor was sampled daily (3-4 mL removed/day) for analysis. Gaseous additives were injected into the bioreactors using the following methods: • Inert Gas Injection (xenon): The bioreactor system controlled the flowrate and composition of oxygen, carbon dioxide, air, and nitrogen that was sparged into each bioreactor. The mixture composition was determined by the dissolved oxygen and pH levels in each reactor. House gas lines for these four gases were filtered and fed into the bioreactor mass flow control system. The effects of xenon were tested by replacing the nitrogen house gas feed with a cylinder containing xenon and replacing the air gas feed with a cylinder containing 21% oxygen and 79% xenon respectively. The system was calibrated for controlling the flowrate of the replacement gas by measuring the bioreactor mass flow controller flowrate for each gas at 12slph using a film flowmeter, then adjusting the gas correction factor for the bioreactor nitrogen or air mass flow controller until the flowrate on the film flowmeter and bioreactor system were the same. […] This allowed the CHO cells to be cultured with the maximum quantity of inert gas. • Reactive Gas Injection (nitric oxide, carbon monoxide, or hydrogen): The bioreactor module controlled the composition and flow of oxygen, air, nitrogen, and carbon dioxide gases as described previously. Reactive gases including nitric oxide, carbon monoxide, or hydrogen were introduced into the gas stream through a tee line connection before the gas mixture entered the bioreactors. The reactive gas flowrate was controlled using a mass flow controller and the flowrate of the bioreactor controlled mixture was adjusted to maintain the total gas flowrate into each reactor at 12slph.

Heme Oxygenase 1 (HO-1) = assay: HO-1 expression in 3 L cultures (RNA-seq, Western blot); format: cell-based, Chinese hamster; details: 3 L cultures exposed to the gas, vs control
Procedure: (§1) Gene expression profiles were captured using RNA-seq. Conesa A, Madrigal P, Tarazona S, et al. A survey of best practices for RNA-seq data analysis. Genome Biology. 2016; 17:13. doi:10.1186/s13059-016-0881-8. RNA was extracted with a RNeasy Plus Mini kit (Qiagen) and quantified by absorbance at 260 nm with a NanoDrop 2000 (Thermo Fisher Scientific). The RNA quality was assessed using a RNA 6000 Nano Kit (Agilent) and a Bioanalyzer (Agilent). RNA was fragmented and libraries were prepared using commercial kits (TruSeq RNA Library Prep Kit v2, Illumina). RNA was sequenced on a HiSeq 2500 (Illumina) at the DNA Sequencing & Genotyping Center of the University of Delaware. Data were analyzed at the Bioinformatics Core Facility, Center for Bioinformatics and Computational Biology of the University of Delaware. As the specific genome sequence of the CHO DG44 line was not available, a Chinese Hamster genome draft was used as a reference. Genes with differential expression (false discovery rate <0.001) were further analyzed with DAVID 6.8 (https://david.ncifcrf.gov/), STRING 10.0 (http://string-db.org/) and iProXpress (http://pir.georgetown.edu/iproxpress2/).
Exemplary transcript profiles of cells on days 1, 3 and 5 of 3 L cell cultures were generated between control and gaseous NO treated cultures to perform differential gene expression analysis (FIG. 16). […]

[2] = cited from earlier work
HO-1 = HO-1 expression in shake flask cultures; format: cell-based, Chinese hamster; details: shake flasks, vs control
Procedure: (§2) Cells were grown in CDM4MAb medium supplemented with poloxamer-188. Flasks were incubated on a shaker at 125 rpm in a humidified incubator at 37° C. and 5% CO2. DETA-NO was dissolved in 0.01 M sodium hydroxide solution at a 0.2 M concentration. Aliquots of DETA-NO solution were added daily to cell cultures to reach a final concentration of 0.09, 0.18 or 0.36 mM DETA-NO. Sodium hydroxide solution (0.01M) was added daily as a negative control. 0.01-1.0 mM DETA-NO release NO at a rate in the low nM/sec range (Bouton, C. and Demple, B., 2000. Nitric oxide-inducible expression of heme oxygenase-1 in human cells translation-independent stabilization of the mRNA and evidence for direct action of nitric oxide. Journal of Biological Chemistry, 275(42), pp. 32688-32693).
(§3) The effects of gaseous NO were partially recapitulated by adding NO-releasing compound DETA-NO daily to cell cultures in shake flasks. Cell growth and viability followed similar trends with addition of DETA-NO as with gaseous NO.

CHO-HBS cells [3] = assay: DETA-NO added daily to shake flask cultures (cell growth, viability); format: cell-based, Chinese hamster; details: shake flasks
Procedure: as §2, §3

[4] = system: glutathione-related enzymes (S-transferase proteins, catalases, oxidation resistance genes); assay: Expression of glutathione-related enzymes in 3 L cultures (RNA-seq, Western blot); format: cell-based, Chinese hamster; details: gaseous NO vs control
Procedure: as §1
NO can oxidize intracellular molecules and thereby change the antioxidant levels within the cell, resulting in oxidative stress that potentially leads to membrane dysfunction, DNA damage and inactivation of proteins. […]

Caspase-3 = target: T1, Caspase-3 (Cricetulus griseus, UniProt Q6JH80); assay: Caspase-3 activity (EnzCheck Caspase-3 Assay Kit #1) in 3 L cultures; format: cell-based, Chinese hamster; details: 3 L cultures ± NO 300 ppm, same number of viable cells
T1 construct: endogenous in cells; host or cells: CHO-HBS cells (CHO DG44 derived), 3 L bioreactor cultures
T1 sequence (Q6JH80 29-175 limits assumed): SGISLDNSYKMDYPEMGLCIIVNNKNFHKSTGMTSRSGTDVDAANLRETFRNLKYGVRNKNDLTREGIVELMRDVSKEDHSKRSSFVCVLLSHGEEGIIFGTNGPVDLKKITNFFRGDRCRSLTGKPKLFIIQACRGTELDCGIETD
T1 sequence (Q6JH80 176-277 limits assumed): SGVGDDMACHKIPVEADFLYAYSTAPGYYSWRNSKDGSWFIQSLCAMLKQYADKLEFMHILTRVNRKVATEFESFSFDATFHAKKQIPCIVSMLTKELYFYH
Description: The NO-specific extension of viability correlates with a decrease in Caspase-3 activity (FIG. 20). Capase-3 activity was monitored with an EnzCheck Caspase-3 Assay Kit #1 (Thermo Fisher Scientific) using samples containing the same number of viable cells. All caspase proteases contain a single cystein at the enzyme catalytic site that is essential for activity. […] Thus, the observed lower caspase-3 activity may be due to a specific blockage of the catalytic cysteine residue through formation of nitrosylthiols.

[5] = Glycosylation analysis (released glycans, HILIC); format: physicochemical; details: CHO-HBS cells treated with 300 ppm NO vs control
Description: Glycans were enzymatically released from purified IgGs, labeled with a fluorescent dye, and separated by hydrophilic interaction liquid chromatography (GlycoWorks RapiFluor-MS N-Glycan Kit, Waters). Glycans of IgGs purified from CHO-HBS cells were consistent with the typical patterns reported in the literature for proteins expressed in CHO cells. A heterogeneous population of glycans with high proportion of GOF structure followed by G1F and G2F was observed (FIG. 26).

[6] = Antibody assembly by SDS-PAGE (non-reducing / reducing); format: physicochemical; details: NO-sparged vs control
Description: In the absence of reducing agents, the pool of IgGs consists of three structures: fully assembled IgGs, IgGs missing one light chain, and IgGs missing two light chains. Variations in the proportion of the three structures depend on the production process and intrinsic properties of the IgG molecules. […] In the presence of reducing agents, the three structures collapsed into two forms of approximately 52 and 26 kDa, corresponding to the heavy and light chains, respectively. No major differences were detected between antibodies produced in NO-sparged reactors compared to controls. Byproducts with an apparent molecular mass of 25 kDa were detected on day 10. These species, which might be degradation products of light chains, seemed to be an intrinsic feature of HBS antibodies independent from the NO-based process.

Question: Which “impact on protein biomolecule production or cell growth” value (from here on “impact”) (CHO-HBS cells [1]) does the source give for [Ar] [Argon] here?
Answer: did not significantly affect

Question: Which results are given for [C-]#[O+] [Carbon Monoxide]?
Answer: expression of HO-1 (oxidative stress response) (Heme Oxygenase 1 (HO-1)): did not lead to an increase; antibody titer (CHO-HBS cells [1]): less impacted; calculated specific cellular productivity (qP) (CHO-HBS cells [1]): higher than control; viable cell density (VCD) / cell growth (CHO-HBS cells [1]): suppressed during the growth phase, but shows higher VCD at the end of the culturing period; overall yield from batch culture (CHO-HBS cells [1]; net effect of VCD to qP): overall smaller yield

Question: For CCN(CC)/[N+]([O-])=N/O.CCNCC [DEA-NO], which half-life ([2]; buffer, pH 7.4) is on record?
Answer: 2 min

Question: For NCCN(CCN)/[N+]([O-])=N/O [DETA-NO, diethylenetriamine-nitric oxide adduct], which “HO-1 expression (oxidative stress response)” value (HO-1) is on record?
Answer: HO-1 up regulation

Question: What about the viable cell counts (CHO-HBS cells [3]; daily addition, relative to control cultures) of the same compound?
Answer: lower at the stationary phase but increased in the late phase of the culture

Question: And the cell death (CHO-HBS cells [3]; higher concentrations tested)?
Answer: increased cell death

Question: What about the half-life ([2]; 37° C., pH 7.4) of the same compound?
Answer: 1200 min

Question: With [HH] [Hydrogen] as the compound, how does the “impact” value (CHO-HBS cells [1]) read?
Answer: do not have a significant impact

Question: For [Kr] [Krypton], which “impact” value (CHO-HBS cells [1]) is on record?
Answer: did not significantly affect

Question: Which half-life ([2]; 37° C., pH 7.4) does the source give for CNCCCCCCN(C)/[N+]([O-])=N/O [MAHMA NONOate] here?
Answer: 1 min

Question: For CC(C)N(CCCN)/[N+]([O-])=N/O [NOC-5], which half-life ([2]; PBS (pH 7.4), 22° C.) is on record?
Answer: 93 min

Question: What does the source list for O=[N+]([O-])[O-].[Na+] [Nitrate, Sodium Nitrate]?
Answer: antibody titer (CHO-HBS cells [1]): no effect; viable cell density (VCD) / cell growth (CHO-HBS cells [1]): no effect

Question: For [N]=O [Nitric Oxide], which “expression of HO-1 (oxidative stress response)” value (Heme Oxygenase 1 (HO-1)) is on record?
Answer: induces expression

Question: What about the “expression of glutathione-related enzymes” value [4] of the same compound?
Answer: stimulates expression

Question: What about the Caspase-3 activity (Caspase-3) of the same compound?
Answer: decrease

Question: What about the “fucosylated glycans of IgGs” value [5] of the same compound?
Answer: minor reduction

Question: And the “overall IgG structure” value [6]?
Answer: did not seem to impact

Question: And the “calculated specific cellular productivity (qP)” value (CHO-HBS cells [1])?
Answer: boosted qP

Question: What about the “viable cell density (VCD) / cell growth” value (CHO-HBS cells [1]) of the same compound?
Answer: shifted the cell culture VCD profile

Question: Which “HO-1 expression (oxidative stress response)” value (HO-1) does the source give for O=NO [Nitrite, Sodium Nitrite] here?
Answer: does not activate

Question: And the antibody titer (CHO-HBS cells [1])?
Answer: no significant impact

Question: What about the “viable cell density (VCD) / cell growth” value (CHO-HBS cells [1]) of the same compound?
Answer: at most a small effect on VCD in the late phase of culture

Question: Which antibody titer (CHO-HBS cells [1]) does the source give for [O]N=O [Nitrogen Dioxide] here?
Answer: strongly negative effect

Question: And the “viable cell density (VCD) / cell growth” value (CHO-HBS cells [1])?
Answer: strongly negative effect

Question: With CCCN(CCCN)/[N+]([O-])=N/O [PAPA NONOate] as the compound, how does the half-life ([2]; 37° C., pH 7.4) read?
Answer: 15 min

Question: With [Xe] [Xenon] as the compound, how does the “impact” value (CHO-HBS cells [1]) read?
Answer: do not have a significant impact

Question: Which half-life ([2]; pH 5.6, following activation by β-galactosidase) does the source give for [O-]/[N+](=N\O[C@@H]1O[C@H](CO)[C@H](O)[C@H](O)[C@H]1O)N1CCCC1 [β-Gal-NO] here?
Answer: six
